# Reference: article PMC10895678 (Journal of Medicinal Chemistry, 2024)
# Where two headings read alike, the source gives them in different places.
# Assays:
# M. smegmatis = test: MIC determination, resazurin end point assay, M. smegmatis; type: cell-based, Mycobacterium smegmatis; details: Mycolicibacterium smegmatis; for MIC50: read-out: MIC50 smegmatis
# CYP1A2 = target: T1, CYP1A2 (Homo sapiens, UniProt P05177); test: Cytochrome P450 inhibition, CYP1A2; type: in vitro ADME; details: human liver microsomes
# T1 construct: from tissue; host or cells: human liver microsomes
# T1 sequence (P05177 1-516): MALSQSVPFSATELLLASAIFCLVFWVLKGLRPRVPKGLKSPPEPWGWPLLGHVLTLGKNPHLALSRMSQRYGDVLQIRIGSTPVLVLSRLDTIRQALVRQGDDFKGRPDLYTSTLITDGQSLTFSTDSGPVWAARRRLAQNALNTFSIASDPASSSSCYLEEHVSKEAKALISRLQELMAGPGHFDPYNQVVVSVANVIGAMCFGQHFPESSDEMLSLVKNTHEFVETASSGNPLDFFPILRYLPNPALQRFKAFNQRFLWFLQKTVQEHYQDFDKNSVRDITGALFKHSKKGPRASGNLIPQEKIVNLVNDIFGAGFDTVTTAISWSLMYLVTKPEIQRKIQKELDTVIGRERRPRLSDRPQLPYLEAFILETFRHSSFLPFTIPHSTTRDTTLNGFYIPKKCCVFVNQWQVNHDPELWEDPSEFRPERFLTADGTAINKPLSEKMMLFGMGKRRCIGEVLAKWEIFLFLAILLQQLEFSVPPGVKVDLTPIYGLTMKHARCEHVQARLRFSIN
# Experimental: Compounds were solubilized to 10 mM in DMSO. The BGAz compounds were incubated at concentrations of 0.003, 0.009, 0.03, 0.08, 0.25, 0.74, 2.2, 6.7, and 20 μM with CYP1A2, CYP2C9, CYP2C19, and CYP2D6 at 37 °C in the presence of the drug-like probe substrate […] the Phase 1 cofactor NADPH (1 mM). The formation of metabolites of the drug-like probe substrates in the absence and presence of the BGAz compound was monitored by LC-MS/MS, and the IC50 value was determined. All assays had two replicates per compound and included a positive control inhibitor.
# M. bovis BCG = test: microbe, parasite or virus in culture; type: cell-based; details: Mycobacterium tuberculosis variant bovis BCG, read-out: BCG MBC
# M. tb H37Ra::pTYOK = type: cell-based, Mycobacterium tuberculosis; details: autoluminescent strain, >50% RLU inhibition on day 3
# [1] = resazurin end point assay, modified Gompertz function, three biological replicates, read-out: M. smeg. MIC99
# [2] = supplementary MIC data file, read-out: MIC99 smegmatis
# [3] = preincubated 30 min prior to NADPH, read-out: CYP1A2 [pre-inc] IC50
# [4] = without pre-incubation, read-out: CYP1A2 IC50
Structure (SMILES),MIC99 (M. smegmatis; [1]),MIC50 (M. smegmatis; supplementary MIC data file),MIC99 (M. smegmatis; [2]),IC50 (CYP1A2; [3]),IC50 (CYP1A2; [4]),MBC (M. bovis BCG),M. tb H37Ra::pTY OK MIClux50 (M. tb H37Ra::pTYOK),MIC50 (M. smegmatis),MIC99 (M. smegmatis; read-out: MIC99 smegmatis)
CNCC1CC(c2ccc(OC(F)(F)F)cc2)N1Cc1ccccc1OC(F)(F)F (stereo not drawn) [BGAz-005],24 µM,9 µM,24 µM,> 20 µM,> 20 µM,12 to 25 µM,4.5 μM,–,–
FC(F)(F)Oc1ccc(C2CC(CN3CCCC3)N2Cc2ccccc2OC(F)(F)F)cc1 (stereo not drawn) [BGAz-002],32 µM,–,–,> 20 µM,> 20 µM,12 to 25 µM,9.2 μM,49 µM,62 µM
Brc1cc(Br)cc(C2CC(CN3CCCC3)N2Cc2ccccc2Br)c1 (stereo not drawn) [BGAz-004],14 µM,6 µM,14 µM,> 20 µM,> 20 µM,12 to 25 µM,7.03 μM,–,–
